Columns and labels:
Assay in all cases: relative viability vs DMSO control (72 h) (fraction); higher = more viable cells
RD = test system: RD
Outline: (§1)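 Densities for seeding sarcoma cell lines into 384-well plates were set to give 80–90% confluence. After 24 h, 2.5 µl of serially diluted compound from source plates of 10 mM to 0.0002 mM went in, and plates stayed 72 h at 37 °C in 5% CO2 with 0.1% DMSO vehicle and a 5 µM positive control. Percent growth from ATPLite readings, averaged over up to triplicate wells, served as relative viability, rescaled so 1 means full and 0 means none.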

VA-ES-BJ = test system: VA-ES-BJ
Outline: as §1

HS729 = test system: HS729
Outline: as §1

MES-SA = test system: MES-SA
Outline: as §1

SK-LMS-1 = test system: SK-LMS-1
Outline: as §1

Cc1[nH]c(/C=C2\C(=O)Nc3ccc(F)cc32)c(C)c1C(=O)NCCN1CCCC1 [Toceranib]
relative viability
Details	HS729	MES-SA	RD	SK-LMS-1	VA-ES-BJ
68 pM	0.982	0.932	1.06	0.939	1.07
0.000203 µM	0.926	0.9214	1.09	0.944	1.05
0.0006 µM	0.901	0.926	1.14	0.972	1.04
0.0018 µM	0.859	0.899	1.07	0.968	1.03
0.0055 µM	0.84	0.915	1.08	0.941	1.04
0.0165 µM	0.778	0.919	1.08	0.946	1.01
0.0494 µM	0.765	0.9	1.11	0.906	0.987
0.1481 µM	0.729	0.919	1.08	0.921	1
0.444 µM	0.715	0.884	1.08	0.893	0.961
1.333 µM	0.59	0.751	1.05	0.81	0.859
4 µM	0.414	0.44	0.786	0.717	0.675

C[C@]12O[C@H](C[C@]1(O)CO)n1c3ccccc3c3c4c(c5c6ccccc6n2c5c31)CNC4=O [Lestaurtinib]
relative viability
Details	HS729	MES-SA	RD	SK-LMS-1	VA-ES-BJ
0.00017 µM	1.05	0.966	1.05	1.08	1.06
0.00051 µM	1	0.928	1.064	1.1	1.06
0.00152 µM	1.01	0.947	1.09	1.06	1.06
0.00457 µM	0.932	0.947	1.09	1.04	1.03
0.01372 µM	0.863	0.874	1.1	1.01	0.953
0.04115 µM	0.797	0.751	1.06	0.878	0.838
0.1235 µM	0.757	0.538	1.01	0.722	0.657
0.3704 µM	0.723	0.333	0.892	0.669	0.544
1.111 µM	0.619	0.2911	0.645	0.541	0.42
3.333 µM	0.411	0.164	0.326	0.353	0.176
10 µM	0.207	0.00447	0.126	0.146	-0.00757

Cc1ccc(Nc2nccc(N(C)c3ccc4c(C)n(C)nc4c3)n2)cc1S(N)(=O)=O [Pazopanib]
relative viability
Details	HS729	MES-SA	RD	SK-LMS-1	VA-ES-BJ
0.00017 µM	0.9	0.9224	1.11	0.993	1.04
0.00051 µM	0.922	0.925	1.12	1	1.05
0.00152 µM	0.876	0.931	1.12	1.02	1.07
0.00457 µM	0.879	0.934	1.11	1.06	1.05
0.01372 µM	0.917	0.933	1.11	1.01	1.06
0.04115 µM	0.8727	0.928	1.12	0.998	1.07
0.1235 µM	0.843	0.922	1.12	0.973	1.08
0.3704 µM	0.793	0.95	1.13	0.9626	1.12
1.111 µM	0.724	0.931	1.12	0.981	1.14
3.333 µM	0.7	0.824	1.16	0.935	1.12
10 µM	0.554	0.517	1.1	0.776	1.06

N#CC1(c2ccc(NC(=O)c3cccnc3NCc3ccncc3)cc2)CCCC1 [Apatinib]
relative viability
Details	HS729	MES-SA	RD	SK-LMS-1	VA-ES-BJ
0.00017 µM	1.06	0.978	0.992	1.06	1.04
0.00051 µM	1.0262	0.958	1.02	1.06	1.08
0.00152 µM	1.066	0.946	1.03	1.07	1.05
0.00457 µM	1.04	0.9268	1.01	1.05	1.08
0.01372 µM	0.997	0.929	1.02	1.07	1.06
0.04115 µM	1.03	0.939	1.01	1.08	1.07
0.1235 µM	1.04	0.928	1.02	1.01	1.067
0.3704 µM	0.963	0.938	1.01	1.05	1.07
1.111 µM	0.906	0.885	1.05	1.02	1.11
3.333 µM	0.865	0.875	1.09	1	1.14
10 µM	0.745	0.773	1.12	0.833	1.17

Clc1ccc(Nc2nnc(Cc3ccncc3)c3ccccc23)cc1 [Vatalanib]
relative viability
Details	HS729	MES-SA	RD	SK-LMS-1	VA-ES-BJ
0.00017 µM	0.874	0.897	1.09	1.03	1.01
0.00051 µM	0.906	0.905	1.1	1.02	1.01
0.00152 µM	0.915	0.908	1.1	0.992	1
0.00457 µM	0.88	0.902	1.095	1	1.04
0.01372 µM	0.916	0.925	1.093	1.026	1.02
0.04115 µM	0.896	0.92	1.08	1	1.02
0.1235 µM	0.864	0.922	1.09	1.016	1.03
0.3704 µM	0.871	0.938	1.12	0.9565	1.05
1.111 µM	0.832	0.937	1.12	0.967	1.02
3.333 µM	0.898	0.919	1.11	0.938	1.07
10 µM	0.934	0.854	1.03	0.858	1.05

— the supplement of paper PMC10883282
